Data published in publication PMC8940841, “A metabolically stable PET tracer for imaging synaptic vesicle protein 2A: synthesis and preclinical characterization of [^18F]SDM-16” (European Journal of Nuclear Medicine and Molecular Imaging, 2021).
pKi: −log10 of the molar value. Where two headings read alike, the source gives them in different places.

Assays:
[1] = molecular target: T1, human SV2A (Homo sapiens, UniProt Q7L0J3); experiment: biochemical
Description: Competition binding assays were performed twice independently using separate assay materials, with 4 technical replicates from each independent assay. […] Duplicate samples of human frontal cortex gray matter were homogenized in PBS buffer (10 mg/mL) for storage at − 80 °C and were diluted to a stock concentration of 4 mg/mL in PBS on the day of the assays. […] Working stocks of brain homogenate (100 µL; final concentration of 2 mg/mL), blocking ligands (20 µL), and radioligand (80 µL; final concentration 2.5 nM) were combined in quadruplicate wells of 96-well plates, sealed, and incubated at room temperature for 90 min on an orbital shaker set to 250 RPM. Reaction plates were filtered, rapidly washed with cold PBS, and dried. Forty microliters of Microscint-20 scintillation cocktail (Perkin-Elmer) was added to each well, and the plate was counted using a Microbeta2 plate reader (Perkin-Elmer). GraphPad Prism was used for curve fitting using the one-site Ki model.

[2] = molecular target: T1, human SV2A; design: Duplicate samples of human frontal cortex gray matter were homogenized in PBS buffer; from tissue; host or cells: human frontal cortex gray matter homogenate; settings: other SV2A ligands; read-out: Ki; cited from earlier work
[3] = Plasma radiometabolite analysis during PET scans; type: in vivo, rhesus monkeys; settings: 30 min p.i.
Description: Arterial blood samples were collected during the PET scans to measure the radioactivity in plasma for generation of the metabolite-corrected arterial plasma input function. Plasma radiometabolite analysis was performed using the column-switching method, following a published protocol. Briefly, arterial blood samples were collected at 3-, 8-, 15-, 30-, 60-, 90-, 120-, and 180-min post-injection (p. i.), treated with urea (8 M), filtered, and injected onto a self-packed short column (4.6 × 19 mm) eluting with 1% MeCN in water at a flow rate of 2 mL/min. The sample was then back flushed onto a Gemini-NX column (5 μm, 4.6 mm × 250 mm) eluting with 40% MeCN/60% 0.1 M ammonium formate (pH 6.4) at a flow rate of 1.2 mL/min. The eluent was fraction-collected using an automated spectrum chromatography CF-1 fraction collector. Activity in the whole blood, plasma, filtrated plasma-urea mix, filters, and HPLC fractions were counted with automatic gamma well-counter (Wizard 2, PerkinElmer). The sample recovery rate, extraction efficiency, and HPLC fraction recovery were monitored. The unmetabolized [^18F]SDM-16 parent fraction was determined as the ratio of the sum of radioactivity in fractions containing the parent compound to the total amount of radioactivity collected and fitted with inverted Gamma4 approaches.
[^18F]SDM-16 had higher metabolite-corrected plasma SUV than the other SV2A radiotracers, indicating slower plasma clearance and higher metabolic stability (Fig. 2a). Whole-blood and plasma-input functions were highly consistent between the two animals, with a stable plasma to whole-blood ratio of 0.93 ± 0.13 over the entire 180-min acquisition period (Fig. S1).

[4] = Brain PET imaging with 1TC kinetic modeling; settings: rhesus monkey
Description: (§1) A total of 10 PET imaging experiments with [^18F]SDM-16 were performed in rhesus monkeys (Macaca mulatta) according to a protocol approved by the Yale University Institutional Animal Care and Use Committee (IACUC). Four monkeys were studied. […] Body temperature was maintained by a water-jacket heating pad. The animal was attached to a physiological monitor, and vital signs (heart rate, blood pressure, respirations, SPO2, EKG, ETCO2, and body temperature) were continuously monitored. A venous line was inserted in one limb for administration of radiotracer, displacement, and blocking drugs. A catheter was placed in the femoral artery in the other limb for blood sampling. Dynamic PET brain scans were performed on a Focus 220 system (Siemens Medical Solutions, Knoxville, TN, USA) with a reconstructed image resolution of approximately 1.5 mm. After a 9-min transmission scan, the radioligand was injected i.v. over 3 min. by an infusion pump. Dynamic PET scans were performed for 3 h (baseline and blocking scans) or 4 h (displacement scan).
(§2) PET images were reconstructed with built-in corrections for attenuation, normalization, scatter, randoms, and deadtime. PET brain images were registered to the animal’s MR image, which was subsequently registered to a brain atlas to define the regions of interest. Dynamic images were reconstructed using a Fourier rebinning and filtered back projection algorithm. A rhesus monkey brain atlas was used for generation of regions of interest (ROIs) and time − activity curves (TACs) for the following ROIs: amygdala, brain stem, caudate nucleus, centrum semiovale (CS), cerebellum, cingulate cortex, frontal cortex, globus pallidus, hippocampus, insula, nucleus accumbens, occipital cortex, pons, putamen, substantia nigra, temporal cortex, and thalamus.
(§3) Volume of distribution (VT, mL·cm^−3) values and the first-order kinetic rate constants of tracer (K1) were derived through 1-tissue (1T) compartment kinetic modeling with the metabolite-corrected arterial plasma input function, which was calculated as the product of the fitted total plasma curve and the parent radiotracer fraction curve. Nondisplaceable volume of distribution (VND) and SV2A occupancy by LEV was calculated using the Lassen plot [32]. Nondisplaceable binding potential (BPND) values were calculated from VT values using CS as reference region, or the VND derived from the blocking study, i.e., BPND = (VT, ROI − VT, CS)/ VT, CS or BPND = (VT/VND) -1.

[5] = tested on: SV2A; experiment: Brain PET imaging with 1TC kinetic modeling
Description: as §1, §2, §3

[6] = Plasma free fraction (fp) by ultrafiltration; type: in vitro ADME, rhesus monkey; settings: monkey, plasma (separated from spiked whole blood)
Description: The unbound fraction of [^18F]SDM-16 in plasma (fp) of rhesus monkey was measured in triplicate using the ultrafiltration method. Briefly, [^18F]SDM-16 solution was added to 3 mL of whole blood. After incubation at ambient temperature for 5 min, the blood sample was centrifuged at 3900 rpm for 5 min. A sample of the supernatant plasma (0.3 mL) was loaded onto the reservoir of a Centrifree® Ultrafiltration device (Merck Millipore Ltd. Tullagreen, Carrigtwohill, Co. Cork, IRELAND) in triplicate and centrifuged at 1228 g for 20 min. The fp value was calculated as the ratio of radioactivity in the filtrate to that in the plasma.

[7] = Measurement of lipophilicity (octanol / PBS pH 7.4); type: physicochemical; settings: octanol/PBS pH 7.4
Description: The logP of [^18F]SDM-16 was determined by a method modified from previously published procedures. Briefly, an aliquot of […] (10 µCi) of the radioligand was added to a 2-mL microtube containing 0.8 mL of octanol and 0.8 mL of 1 × phosphate buffered saline (1 × PBS, pH 7.4). The mixture was vortexed for 30 s and then centrifuged at 2000 g for 2 min. A subsample of the octanol (0.1 mL) and 1 × PBS (0.5 mL) layers was evaluated with a gamma counter. The major portion of the octanol layer (0.5 mL) was diluted with another 0.3 mL of octanol, mixed with a fresh portion of 0.8 mL of PBS, vortexed, centrifuged, and analyzed as described above. This process was repeated until consistent log P values were obtained, with five consecutive equilibration procedures being performed for each logP measurement. Four separate measurements were performed for [^18F]SDM-16 on different days.

[8] = molecular target: SV2A (Macaca mulatta, UniProt H9EQH8); settings: previously determined; cited from earlier work
[9] = tested on: SV2A; settings: 1TC, cited from earlier work

T1 sequence (Q7L0J3 whole entry): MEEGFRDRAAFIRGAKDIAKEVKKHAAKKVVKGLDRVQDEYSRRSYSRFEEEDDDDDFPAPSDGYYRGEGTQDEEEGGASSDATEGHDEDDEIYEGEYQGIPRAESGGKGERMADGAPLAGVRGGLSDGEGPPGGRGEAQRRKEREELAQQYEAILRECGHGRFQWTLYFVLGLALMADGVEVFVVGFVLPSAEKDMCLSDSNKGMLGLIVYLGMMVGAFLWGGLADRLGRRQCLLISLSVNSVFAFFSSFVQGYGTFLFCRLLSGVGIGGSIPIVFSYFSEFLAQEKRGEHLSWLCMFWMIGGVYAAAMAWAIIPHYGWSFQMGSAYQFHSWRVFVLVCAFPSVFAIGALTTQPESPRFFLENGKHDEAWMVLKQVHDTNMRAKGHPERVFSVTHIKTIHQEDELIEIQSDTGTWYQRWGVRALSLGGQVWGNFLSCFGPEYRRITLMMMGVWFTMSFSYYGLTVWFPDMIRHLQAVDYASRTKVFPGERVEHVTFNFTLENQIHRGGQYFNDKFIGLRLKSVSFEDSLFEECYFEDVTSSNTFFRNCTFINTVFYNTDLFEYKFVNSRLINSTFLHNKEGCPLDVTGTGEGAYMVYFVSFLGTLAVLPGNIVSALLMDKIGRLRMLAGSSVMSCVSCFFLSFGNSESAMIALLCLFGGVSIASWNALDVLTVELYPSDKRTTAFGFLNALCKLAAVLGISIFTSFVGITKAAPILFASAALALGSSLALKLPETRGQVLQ
Chain of SV2A (Macaca mulatta, UniProt H9EQH8) (H9EQH8 1-742): as the sequence (Q7L0J3 whole entry) above, with G64S, I572V counted along it

## Cc1nccn1CN1CC(c2cc(F)cc(F)c2)CC1=O (racemic) [Rac SDM-16, 4-(3,5-difluorophenyl)-1-((2-methyl-1H-imidazol-1-yl)methyl)pyrrolidin-2-one]
[1]
  pKi: 8.43

## Cc1nccn1CN1C[C@H](c2cc(F)cc(F)c2)CC1=O [(S)-SDM-16]
[1]; [^3H]UCB-J, human frontal cortex homogenate
  pKi: 7.59

## Cc1cnccc1CN1C[C@@H](c2cc(F)cc(F)c2)CC1=O [SynVesT-1]
[2]
  pKi: 8.51

## Cc1cnccc1CN1C[C@@H](c2cc(F)c(F)c(F)c2)CC1=O [UCB-J]
[2]
  pKi: 8.59

## [11CH3]c1cnccc1CN1C[C@@H](c2cc(F)c(F)c(F)c2)CC1=O [[^11C]UCB-J]
[3]
  parent fraction in plasma: 40 ± 6%
[4]; brain tissue, intravenous
  fraction unbound: 0.073
[5]; Amygdala
  BPND, VND method: 2.77 ± 0.06
  BPND, VT(CS) method: 0.85 ± 0.34
  K1: 0.48 ± 0.14 mL/cm^3 per min
[5]; Anterior cingulate
  BPND, VND method: 6.84 ± 0.18
  BPND, VT(CS) method: 2.70 ± 0.74
  K1: 0.73 ± 0.20 mL/cm^3 per min
[5]; Brainstem
  BPND, VND method: 2.61 ± 0.44
  BPND, VT(CS) method: 0.76 ± 0.21
  K1: 0.89 ± 0.17 mL/cm^3 per min
[5]; Caudate
  BPND, VND method: 5.78 ± 0.43
  BPND, VT(CS) method: 2.40 ± 0.72
  K1: 0.75 ± 0.12 mL/cm^3 per min
[5]; Cerebellum
  BPND, VND method: 4.43 ± 0.83
  BPND, VT(CS) method: 1.95 ± 0.36
  K1: 0.81 ± 0.16 mL/cm^3 per min
[5]; Cingulate cortex
  BPND, VND method: 7.37 ± 1.18
  BPND, VT(CS) method: 3.17 ± 0.84
[5]; Frontal cortex
  BPND, VND method: 7.28 ± 1.00
  BPND, VT(CS) method: 3.17 ± 0.84
  K1: 0.66 ± 0.16 mL/cm^3 per min
[5]; Globus pallidus
  BPND, VND method: 3.31 ± 0.38
  BPND, VT(CS) method: 1.10 ± 0.28
  K1: 0.65 ± 0.11 mL/cm^3 per min
[5]; Guo plot of baseline VT
  in vivo Kd ratio, Kd(tracer)/Kd([^18F]SDM-16): 0.38
[5]; Hippocampus
  BPND, VND method: 4.47 ± 0.14
  BPND, VT(CS) method: 1.59 ± 0.39
  K1: 0.61 ± 0.12 mL/cm^3 per min
[5]; Insular cortex
  BPND, VND method: 7.24 ± 0.73
  BPND, VT(CS) method: 3.12 ± 0.81
  K1: 0.75 ± 0.17 mL/cm^3 per min
[5]; Mean ± SD over brain regions
  K1: 0.72 ± 0.17 mL/cm^3 per min
[5]; Nucleus accumbens
  BPND, VND method: 7.16 ± 1.13
  BPND, VT(CS) method: 3.12 ± 0.81
  K1: 0.77 ± 0.17 mL/cm^3 per min
[5]; Occipital cortex
  BPND, VND method: 7.01 ± 0.88
  BPND, VT(CS) method: 2.97 ± 0.65
  K1: 0.81 ± 0.21 mL/cm^3 per min
[5]; Putamen
  BPND, VND method: 6.00 ± 0.24
  BPND, VT(CS) method: 2.42 ± 0.63
  K1: 1.03 ± 0.19 mL/cm^3 per min
[5]; Temporal cortex
  BPND, VND method: 6.57 ± 0.89
  BPND, VT(CS) method: 2.79 ± 0.61
  K1: 0.66 ± 0.14 mL/cm^3 per min
[5]; Thalamus
  BPND, VND method: 5.21 ± 0.57
  BPND, VT(CS) method: 2.03 ± 0.62
  K1: 0.72 ± 0.24 mL/cm^3 per min
[6]
  fraction unbound at 5 min: 0.46
[7]
  logP: 2.46
[8]
  VND: 6.27 mL/cm^3
[9]; Amygdala
  VT (baseline): 24.4 ± 2.0 mL/cm^3
[9]; Brainstem
  VT (baseline): 23.5 ± 2.8 mL/cm^3
[9]; Caudate
  VT (baseline): 44.8 ± 4.6 mL/cm^3
[9]; Centrum semiovale
  VT (baseline): 13.6 ± 2.9 mL/cm^3
[9]; Cerebellum
  VT (baseline): 39.5 ± 5.8 mL/cm^3
[9]; Cingulate cortex
  VT (baseline): 55.6 ± 10.0 mL/cm^3
[9]; Frontal cortex
  VT (baseline): 55.4 ± 8.2 mL/cm^3
[9]; Globus pallidus
  VT (baseline): 27.9 ± 3.0 mL/cm^3
[9]; Hippocampus
  VT (baseline): 34.4 ± 2.8 mL/cm^3
[9]; Insular cortex
  VT (baseline): 54.6 ± 6.7 mL/cm^3
[9]; Nucleus accumbens
  VT (baseline): 53.9 ± 9.2 mL/cm^3
[9]; Occipital cortex
  VT (baseline): 52.9 ± 7.0 mL/cm^3
[9]; Putamen
  VT (baseline): 45.2 ± 3.0 mL/cm^3
[9]; Temporal cortex
  VT (baseline): 50.4 ± 6.9 mL/cm^3
[9]; Thalamus
  VT (baseline): 40.3 ± 6.4 mL/cm^3

## Cc1cnccc1CN1C[C@@H](c2cccc([18F])c2)CC1=O [[^18F]SynVesT-2]
[4]; in vivo
  fraction unbound: 0.195
[6]
  fraction unbound at 5 min: 0.41
[7]
  logP: 2.17
[8]
  VND: 2.10 mL/cm^3
